Measurements as given in patent publication US8809545B2, “Aryl pyridine as aldosterone synthase inhibitors” (Novartis AG, priority 2009, dated 2014).

Key:
aldosterone synthase = target: T1, aldosterone synthase (Homo sapiens, UniProt P19099); assay: Aldosterone cell secretion in Ang II-stimulated NCI-H295R cells (SPA with anti-aldosterone antibody); type: cell-based; conditions: human adrenocortical carcinoma NCI-H295R cells, 1 μM Ang II, 24 h
T1 construct: host or cells: NCI-H295R
T1 sequence (P19099 25-503): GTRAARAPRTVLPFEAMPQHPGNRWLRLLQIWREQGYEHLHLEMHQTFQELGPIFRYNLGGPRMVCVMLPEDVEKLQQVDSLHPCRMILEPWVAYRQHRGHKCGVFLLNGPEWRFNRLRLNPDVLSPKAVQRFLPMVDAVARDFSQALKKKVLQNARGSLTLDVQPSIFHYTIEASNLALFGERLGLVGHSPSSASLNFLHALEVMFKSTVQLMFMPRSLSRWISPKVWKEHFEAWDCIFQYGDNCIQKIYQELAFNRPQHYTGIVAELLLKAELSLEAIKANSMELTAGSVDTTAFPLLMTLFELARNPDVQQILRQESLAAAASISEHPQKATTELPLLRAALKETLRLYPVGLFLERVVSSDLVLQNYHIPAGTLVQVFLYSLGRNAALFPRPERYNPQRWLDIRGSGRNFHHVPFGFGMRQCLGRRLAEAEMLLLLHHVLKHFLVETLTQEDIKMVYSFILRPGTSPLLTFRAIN
Excerpt: In particular, the aldosterone synthase inhibitory activities in vitro can be determined by the following assay.
Human adrenocortical carcinoma NCI-H295R cell line was obtained from American Type Culture Collection (Manassas, Va.). Insulin/transferrin/selenium (ITS)-A supplement (100×), DMEM/F-12, antibiotic/antimycotic (100×), and fetal bovine serum (FBS) were purchased from Invitrogen (Carlsbad, Calif.). Anti-mouse PVT scintillation proximity assay (SPA) beads and NBS 96-well plates were obtained from GE Health Sciences (Piscataway, N.J.) and Corning (Acton, Mass.), respectively. Solid black 96-well flat bottom plates were purchased from Costar (Corning, N.Y.). Aldosterone and angiotensin (Ang II) were purchased from Sigma (St. Louis, Mo.). D-[1,2,6,7-^3H(N)]aldosterone was acquired from PerkinElmer (Boston, Mass.). Nu-serum was a product of BD Biosciences (Franklin Lakes, N.J.).
On the following day, cells are rinsed with 100 μL of phosphate-buffered saline (PBS) and incubated with 100 μL of treatment medium containing 1 μM Ang II and a compound at different concentrations in quadruplicate wells at 37° C. for 24 h. At the end of incubation, 50 μL of medium is withdrawn from each well for measurement of aldosterone production by an SPA using mouse anti-aldosterone monoclonal antibodies.
Measurement of aldosterone activity can also be performed using a 96-well plate format. […] Anti-mouse PVT SPA beads (50 μL) are then added to each well and incubated overnight at room temperature prior to counting in a Microbeta plate counter. The amount of aldosterone in each sample is calculated by comparing with a standard curve generated using known quantities of the hormone.
(§1) Inhibition of the release of certain steroids can be used as a measure of the respective enzyme inhibition by the added test compounds. The dose-dependent inhibition of enzymatic activity by a compound is calculated by means of an inhibition plot which is characterized by an IC50.
The inhibition plot is calculated by fitting a 4-parameter logistic function to the raw data points using the least squares method. The equation of the 4-parameter logistic function is calculated as follows: Y=(d−a)/((1+(x/c)b))+a, where: a=minimum data level, b=gradient, I […], d=maximum data level, x=inhibitor concentration.

[1] = target: T2, CYP11B1 (steroid 11 β-hydroxylase) (Homo sapiens, UniProt P15538); assay: Cortisol cell secretion in NCI-H295R cells (in vitro inhibitory activity for CYP11B1); type: cell-based; conditions: compound at 1 μM
T2 construct: the NCI-H295R cells have CYP11B1 (steroid 11 β-hydroxylase); host or cells: NCI-H295R
T2 sequence (P15538 25-503): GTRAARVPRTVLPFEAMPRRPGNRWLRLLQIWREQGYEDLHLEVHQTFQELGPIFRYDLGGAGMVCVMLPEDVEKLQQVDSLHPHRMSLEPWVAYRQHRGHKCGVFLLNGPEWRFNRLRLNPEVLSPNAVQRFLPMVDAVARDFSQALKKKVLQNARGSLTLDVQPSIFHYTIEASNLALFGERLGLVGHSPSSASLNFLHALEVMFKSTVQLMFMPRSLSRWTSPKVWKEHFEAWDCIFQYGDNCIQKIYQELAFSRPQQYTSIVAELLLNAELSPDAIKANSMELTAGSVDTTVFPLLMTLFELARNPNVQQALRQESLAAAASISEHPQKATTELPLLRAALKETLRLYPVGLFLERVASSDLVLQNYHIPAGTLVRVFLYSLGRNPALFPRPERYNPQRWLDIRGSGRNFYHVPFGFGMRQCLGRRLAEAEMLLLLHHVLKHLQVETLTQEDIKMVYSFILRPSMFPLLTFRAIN
Excerpt: The in vitro inhibitory activities for CYP11B1 can be determined by the following assay.
The cell line NCI-H295R was originally isolated from an adrenocortical carcinoma and has been characterized in the literature through the stimulable secretion of steroid hormones and the presence of the enzymes essential for steroidogenesis. Thus, the NCI-H295R cells have CYP11B1 (steroid 11 β-hydroxylase). The cells show the physiological property of zonally undifferentiated human fetal adrenocortical cells which, however, have the capacity to produce the steroid hormones which are formed in the three, phenotypically distinguishable zones in the adult adrenal cortex.
The NCI-H295R cells (American Type Culture Collection, ATCC, Rockville, Md., USA) are grown in Dulbeoco's Modified Eagle'Ham F-12 Medium (DME/F12), which has been supplemented with Ulroser SF Serum (Soprachem, Cergy-Saint-Christophe, France), insulin, transferrin, selenite (I-T-S, Becton Dickinson Biosiences, Franklin lakes, N.J., USA) and antibiotics in 75 cm^2 cell culture vessels at 37° C. and in a 95% air-5% carbon dioxide atmosphere. The cells are subsequently transferred for colony formation into a 24-well incubation vessel. They are cultivated there in DME/F12 medium, which is now supplemented with 0.1% bovine serum instead of Ultroser SF for 24 hours. The experiment is initiated by cultivating the cells in DME/F12 medium which is supplemented with 0.1% bovine serum albumin and test compound, in the presence or absence of cell stimulants, for 72 hours. The test substance is added in a concentration range from 0.2 nanomolar to […]. Cell stimulants which can be used are angiotensin II ([…] or 100 nanomolar), potassium ions (16 millimolar), forskolin (10 micromolar) or a combination of two stimulants.
The excretion of aldosterone, cortisol, corticosterone and estradiol/estrone into the culture medium can be detected and quantified by commercially available, specific monoclonal antibodies in radioimmunoassays in accordance with the manufacturer's instructions.
as §1
The inhibition activity of CYP11B1 production can also be expressed in percentage inhibition (% inhibition) at a given concentration (e.g. % inhibition at 1 μM), which is the cortisol level when cell is treated with the given concentration of a compound of the invention (e.g. concentration of 1 μM) versus the cortisol excretion when cell is free of the compound of the invention. % inhibition cortisol production=[(Y′−X′)/Y′]×100 wherein X′ is the level of cortisol when the cell is treated with a compound of Formula I; and Y′ is the level of cortisol when the cell is free of compound of Formula I.

SMILES	IC50 (aldosterone synthase)	inhibition at 1 µM ([1]; NCI-H295R)	further results
CCS(=O)(=O)NC(c1ccc(F)cc1)c1cncc(-c2ccc(C#N)c(C)c2)c1 (stereo not drawn) [N-(5-(4-cyano-3-methylphenyl)pyridin-3-yl)(4-fluorophenyl)methyl)ethane-sulfonamide]	121 nM	23%	–
CCCC(NS(=O)(=O)CC)c1cncc(-c2ccc(C#N)c(Cl)c2)c1 (racemic) [N-(1-(5-(3-chloro-4-cyanophenyl)pyridin-3-yl)butyl)ethanesulfonamide: Racemate, N-(1-(5-(3-chloro-4-cyanophenyl)pyridin-3-yl)butyl)ethanesulfonamide]	132 nM	25%	–
COc1ccc(S(=O)(=O)Nc2cncc(-c3ccc(C#N)c(Cl)c3)c2)cc1 [N-[5-(3-Chloro-4-cyano-phenyl)-pyridin-3-yl]-4-methoxy-benzene-sulfonamide]	9 nM	74.5%	–
CCS(=O)(=O)NC(C)c1cncc(-c2ccc(C#N)c(OC)c2)c1 (single isomer, unassigned) [N-(1-(5-(4-cyano-3-methoxyphenyl)pyridin-3-yl)ethyl)ethanesulfonamide]	–	38%	IC50 (aldosterone synthase; Enantiomer 1): 64 nM; IC50 (aldosterone synthase; Enantiomer 2): 140 nM
CCS(=O)(=O)NC(C)c1cncc(-c2ccc(C#N)c(Cl)c2)c1 (single isomer, unassigned) [N-(1-(5-(3-chloro-4-cyanophenyl)pyridin-3-yl)ethyl)ethanesulfonamide]	–	53%	IC50 (aldosterone synthase; Enantiomer 1): 49 nM; IC50 (aldosterone synthase; Enantiomer 2): 74 nM
N#Cc1ccc(-c2cncc(NS(=O)(=O)Cc3ccccc3Cl)c2)cc1Cl [N-(5-(3-chloro-4-cyanophenyl)pyridin-3-yl)-1-(2-chlorophenyl)methanesulfonamide]	45 nM	34%	–
CCS(=O)(=O)N[C@H](c1cncc(-c2ccc(C#N)c(Cl)c2)c1)C1CC1 [(S)-N-((5-(3-chloro-4-cyanophenyl)pyridin-3-yl)(cyclopropyl)methyl)ethanesulfonamide]	24 nM	38%	–
CCS(=O)(=O)Nc1cncc(-c2ccc(C#N)c(OC)c2)c1 [N-(5-(4-cyano-3-methoxyphenyl)pyridin-3-yl)ethanesulfonamide]	33 nM	38%	–
CCS(=O)(=O)NC(C)c1cncc(-c2ccc(C#N)c(OC)c2)c1 (single isomer, unassigned) [N-(1-(5-(4-cyano-3-methoxyphenyl)pyridin-3-yl)ethyl)ethanesu] [N-(1-(5-(4-cyano-3-methoxyphenyl)pyridin-3-yl)ethyl)ethanesulfonamide]	–	–	Cortisol cell secretion (% inhibition @ 1 μM) [1]: 27%
CCS(=O)(=O)NC(c1cncc(-c2ccc(C#N)c(OC)c2)c1)C1CC1 (single isomer, unassigned) [N-(5-(4-cyano-3-methoxyphenyl)pyridin-3-yl)(cyclopropyl)methyl)ethanesulfonamide]	–	25%	IC50 (aldosterone synthase; Enantiomer 1): 111 nM; IC50 (aldosterone synthase; Enantiomer 2): 41 nM
CCS(=O)(=O)NC(c1cncc(-c2ccc(Cl)cc2)c1)C1CC1 (stereo not drawn) [N-((5-(4-chlorophenyl)pyridin-3-yl)(cyclopropyl)methyl)-ethanesulfonamide]	42 nM	31%	–
CCS(=O)(=O)NC(c1cncc(-c2cccc(Cl)c2Cl)c1)C1CC1 (stereo not drawn) [N-(cyclopropyl(5-(2,3-dichlorophenyl)pyridin-3-yl)methyl)ethanesulfonamide]	5 nM	39%	–
CCS(=O)(=O)N[C@@H](c1cncc(-c2ccc(C#N)c(Cl)c2)c1)C1CC1 [(R)-N-((5-(3-chloro-4-cyanophenyl)pyridin-3-yl)(cyclopropyl)methyl)ethanesulfonamide]	56 nM	29%	–
CCS(=O)(=O)NCc1cncc(-c2cc3cnc(Cl)cc3n2C)c1 [Ethanesulfonic acid [5-(6-chloro-1-methyl-1H-pyrrolo[3,2-c]pyridin-2-yl)-pyridin-3-ylmethyl]-amide]	165 nM	–	inhibition at 1 µM [1]: 15%
CCS(=O)(=O)NC(C)(C)c1cncc(-c2ccc(C#N)c(Cl)c2)c1 [N-(2-(5-(3-chloro-4-cyanophenyl)pyridin-3-yl)propan-2-yl)ethanesulfonamide]	99 nM	66%	–
CCS(=O)(=O)NC(c1cncc(-c2ccc(OC(F)(F)F)cc2)c1)C1CC1 (stereo not drawn) [N-(cyclopropyl(5-(4-(trifluoromethoxy)phenyl)pyridin-3-yl)methyl)ethanesulfonamide]	110 nM	20%	–
CCS(=O)(=O)NC(c1cncc(-c2ccc(C#N)c(OC)c2)c1)C1CC1 (single isomer, unassigned) [N-((5-(4-cyano-3-methoxyphenyl)pyridin-3-yl)(cyclopropyl)met] [N-(5-(4-cyano-3-methoxyphenyl)pyridin-3-yl)(cyclopropyl)methyl)ethanesulfonamide]	–	–	Cortisol cell secretion (% inhibition @ 1 μM) [1]: 44%
CCS(=O)(=O)NC(C)c1cncc(-c2ccc(C#N)c(Cl)c2)c1 (single isomer, unassigned) [N-(1-(5-(3-chloro-4-cyanophenyl)pyridin-3-yl)ethyl)ethanesul] [N-(1-(5-(3-chloro-4-cyanophenyl)pyridin-3-yl)ethyl)ethanesulfonamide]	–	–	Cortisol cell secretion (% inhibition @ 1 μM) [1]: 50%
